Data taken from PMC5555576, “Selective small-chemical inhibitors of protein arginine methyltransferase 5 with anti-lung cancer activity” (PLoS ONE, 2017).
Where “and” joins values, the source holds several entries; their conditions need not be identical. Equal values may be shown once. Values belong to the compound of their own block, whether it stands above or below them.

Columns and labels:
[1] = target: T1, PRMT5 (Homo sapiens, UniProt O14744); assay: Steady-state kinetic analysis of PRMT5 inhibition (time-dependent inhibition assay); format: biochemical
T1 construct: His6; made in house; host or cells: E. coli BL21(ED3) [sic]
Method: Different amounts of compound C2 or C5 were present in the final methylation reaction mixtures with 1.2 μg of PRMT5, 5 μM AdoMet, 2 μCi of H^3-AdoMet and various concentrations of SmD3. After a 10-, 20- or 30-min incubation at 30 °C or no incubation, the reaction mixtures were spread onto DE81 chromatography paper discs and the amounts of methylated products were quantified by liquid scintillation. Amounts (counts per minute [cpm]) of methylated products and incubation time (minutes) were plotted and reaction velocity (cpm per minute) was deduced.
To understand the mechanism of inhibition of identified compounds, we analyzed the kinetic pattern of inhibition using steady-state enzymatic measurements. The velocities of PRMT5 methylation of SmD3 were measured at several selected concentrations of compounds C2 and C5 over a range of SmD3 concentrations. Plotted in the double-reciprocal format with 1/velocity versus 1/[SmD3]
Fig 5 Steady-state kinetic analysis of PRMT5 inhibition by compounds C2 and C5. Double-reciprocal plot of reaction velocities (cpm per minute) versus concentrations of SmD3. Methylation reaction mixtures contained various concentrations of C2 (left) or C5 (right), various concentrations of SmD3, 1.2 μg of PRMT5 and 5 μM AdoMet. The mixtures were incubated for different times and the amounts of methylated products were quantified using DE81 paper and liquid scintillation. Reaction velocity was calculated as H^3 incorporation (cpm) into SmD3 per minute.

[2] = Toxicity observed after intraperitoneal injection; format: in vivo, BALB/c mice; conditions: 100 mg/kg
Method: The obtained 3 compounds (C5, C9, and C11) have characteristics of Lipinski’s rule-of-five, which defines four physicochemical parameters found in a set of active drugs which made them into phase II clinical trials. We chose one compound (C9) to analyze its pharmacokinetic parameters in the mouse. BALB/c mice were randomized and administrated compound C9 (dissolved in 5% DMSO and 0.5% Tween 80) at dosages of 25, 50 and 100 mg/kg by intraperitoneal (I.P.) injection. Mice were sacrificed and blood samples were collected at different time points after administration of compounds. The compound concentrations in plasma samples were measured (S1 Fig). […] However, we observed the high toxicity of the compound in the mouse at the dosage of 100 mg/kg.

[3] = system: PRMT5-target genes in A549 cells; assay: Real-time PCR of PRMT5-regulated genes; format: cell-based; conditions: 50 μM, 24 hrs
Method: We identified a set of genes whose expression was altered by silencing PRMT5 expression in lung cancer A549 cells. A549 cells were treated with C9a and EPZ015666 and expression of 6 identified PRMT5-regulated genes was analyzed. […] The future study would use genome-wide approach to determine genes whose expression is affected by PRMT5 inhibitors.
Supplementary file pone.0181601.s005.tif: S5 Fig PRMT5 inhibitors selectively affect PRMT5-target genes in lung cancer cells. RNAs were isolated from cells cultured in the presence of DMSO, EPZ015666 (Sigma-Aldrich) (50 μM), or C9a (50 μM) for 24 hrs and submitted to RT-RCR analysis of gene expression in cancer cell lines. Relative mRNA levels = mRNA in cells treated with PRMT5-inhibtor/mRNA in DMSo-treated cells. (TIF) Click here for additional data file.

[4] = single replicate, vs control, actin-normalised

T1 sequence (O14744 whole entry): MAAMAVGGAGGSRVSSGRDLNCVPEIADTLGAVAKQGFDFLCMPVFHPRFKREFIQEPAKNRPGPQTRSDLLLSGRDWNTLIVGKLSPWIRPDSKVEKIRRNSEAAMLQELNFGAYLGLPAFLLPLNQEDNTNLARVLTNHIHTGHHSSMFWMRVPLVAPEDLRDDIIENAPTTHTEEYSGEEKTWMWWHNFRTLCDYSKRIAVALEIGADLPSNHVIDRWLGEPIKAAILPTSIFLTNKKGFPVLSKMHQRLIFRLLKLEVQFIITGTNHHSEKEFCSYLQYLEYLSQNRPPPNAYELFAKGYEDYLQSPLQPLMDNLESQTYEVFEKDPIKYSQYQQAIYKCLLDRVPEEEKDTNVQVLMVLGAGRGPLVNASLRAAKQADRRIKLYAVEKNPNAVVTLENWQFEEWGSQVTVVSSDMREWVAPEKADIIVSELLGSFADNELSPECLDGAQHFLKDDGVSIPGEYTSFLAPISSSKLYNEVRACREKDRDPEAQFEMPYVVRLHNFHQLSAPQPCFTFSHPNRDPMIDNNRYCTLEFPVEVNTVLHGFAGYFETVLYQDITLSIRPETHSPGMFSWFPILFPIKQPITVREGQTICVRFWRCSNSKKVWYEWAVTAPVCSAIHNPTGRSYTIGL

mode of inhibition with regard to SAM [1]: not competitive inhibitors
mode of inhibition with regard to the SmD3 substrate ([1]; double-reciprocal plot): competitive inhibitors
SMILES: CCn1c(=O)[nH]c2cc(C(=O)Nc3ccc(OC)cc3)ccc2c1=O [Compound C5]

SMILES: COc1ccc(Nc2ncnc3c2cnn3Cc2ccc(C)cc2)cc1 [Compound C9]
toxicity in the mouse [2]: high toxicity

SMILES: Nc1cccc(Nc2ncnc3c2cnn3Cc2ccccc2)c1 [Compound C9a]
EXPRESSION FOLD CHANGE avg BTG2 ([3]; average): 1.857
EXPRESSION FOLD CHANGE avg FGFR1 ([3]; average): 0.9076
EXPRESSION FOLD CHANGE avg FOXO3 ([3]; average): 1.441
EXPRESSION FOLD CHANGE avg GLIPR1 ([3]; average): 6.032
EXPRESSION FOLD CHANGE avg PTTG1 ([3]; average): 1.0371
EXPRESSION FOLD CHANGE avg TIGAR ([3]; average): 1.502
EXPRESSION FOLD CHANGE BTG2 [3, 4]: 1.889 and 1.826 and 0.7777
EXPRESSION FOLD CHANGE FGFR1 [3, 4]: 0.9289 and 0.7185 and 1.075
EXPRESSION FOLD CHANGE FOXO3 [3, 4]: 1.695 and 1.429 and 1.452
EXPRESSION FOLD CHANGE GLIPR1 [3, 4]: 5.777 and 6.772 and 5.548
EXPRESSION FOLD CHANGE PTTG1 [3, 4]: 0.9706 and 1.104 and 1.215
EXPRESSION FOLD CHANGE TIGAR [3, 4]: 1.627 and 1.032 and 1.378
